The supplement of paper PMC10307832

Legend:
Assay in all cases: relative viability (nuclei count vs DMSO), 5 days (fraction); higher = more cells survive
[1] = compound: C1=CC=C2C(=C1)C=CC(=C2SSC3=C(C=CC4=CC=CC=C43)O)O [IPA-3] + COc1cc2c(Oc3ccc(NC(=O)C4(C(=O)Nc5ccc(F)cc5)CC4)cc3F)ccnc2cc1OCCCN1CCOCC1 [Foretinib] (partner 0.25 µM)
Method in brief: (§1)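 After 5 days of treatment, lung cancer cells in 1536-well plates were fixed and stained in a single step (final 0.05% Triton X-100, 1% formaldehyde, 1 ug/ml Hoechst) and their nuclei counted on 4× images. Treatment had been applied by pin tool the day after seeding as one drug alone or as a fixed anchor-drug dose with five library-drug doses (not always all listed) in √10 steps. Relative viability is the nuclei count of treated wells divided by that of vehicle wells, and values are medians of duplicate plates.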

[2] = compound: Cc1ccc(-n2nc(C(C)(C)C)cc2NC(=O)Nc2ccc(OCCN3CCOCC3)c3ccccc23)cc1 [Doramapimod] + COc1cc2c(Oc3ccc(NC(=O)C4(C(=O)Nc5ccc(F)cc5)CC4)cc3F)ccnc2cc1OCCCN1CCOCC1 [Foretinib] (partner 0.25 µM)
Method in brief: as §1

[3] = compound: Cn1c(Nc2ccc(C(F)(F)F)cc2)nc2cc(Oc3ccnc(-c4ncc(C(F)(F)F)[nH]4)c3)ccc21 [RAF265] + CC(C)C[C@H](NC(=O)[C@H](Cc1ccccc1)NC(=O)c1cnccn1)B(O)O [Bortezomib] (partner 0.002 µM)
Method in brief: as §1

[4] = compound: Cn1c(Nc2ccc(C(F)(F)F)cc2)nc2cc(Oc3ccnc(-c4ncc(C(F)(F)F)[nH]4)c3)ccc21 [RAF265] + CCNC(=O)c1noc(-c2cc(C(C)C)c(O)cc2O)c1-c1ccc(CN2CCOCC2)cc1 [Luminespib] (partner 0.01 µM)
Method in brief: as §1

Cell Line | relative viability ([1]; first compound 0.2 µM) | relative viability ([1]; first compound 0.6325 µM) | relative viability ([1]; first compound 2 µM) | relative viability ([1]; first compound 6.325 µM) | relative viability ([1]; first compound 20 µM) | relative viability ([2]; first compound 0.02 µM) | relative viability ([2]; first compound 0.06325 µM) | relative viability ([2]; first compound 0.2 µM) | relative viability ([2]; first compound 0.6325 µM) | relative viability ([2]; first compound 2 µM) | relative viability ([3]; first compound 0.01 µM) | relative viability ([3]; first compound 0.03162 µM) | relative viability ([3]; first compound 0.1 µM) | relative viability ([3]; first compound 0.3162 µM) | relative viability ([3]; first compound 1 µM) | relative viability ([4]; first compound 0.01 µM) | relative viability ([4]; first compound 0.03162 µM) | relative viability ([4]; first compound 0.1 µM) | relative viability ([4]; first compound 0.3162 µM) | relative viability ([4]; first compound 1 µM)
NCI-H1355 | 1 | 0.953 | 1.02 | 0.946 | 1.08 | 0.95 | 0.986 | 0.922 | 0.972 | 0.939 | 1.26 | 1.19 | 1.05 | 1.09 | 0.804 | 0.705 | 0.726 | 0.747 | 0.411 | 0.246
EKVX | 0.775 | 0.668 | 0.895 | 0.893 | 1.21 | 0.831 | 0.829 | 0.789 | 0.746 | 0.764 | 0.99 | 0.995 | 1.04 | 0.513 | 0.763 | 0.837 | 0.918 | 0.984 | 0.598 | 0.791
NCI-H441 | 1.14 | 1.2 | 0.79 | 0.837 | 1 | 1.02 | 0.654 | 0.909 | – | 0.842 | 0.446 | – | 0.499 | 0.362 | 0.207 | 0.368 | 0.29 | 0.321 | 0.263 | 0.327
NCI-H1975 | 1.01 | 0.887 | 1.03 | 0.873 | 0.935 | 0.961 | 0.965 | 0.952 | 0.988 | 0.924 | 0.46 | 0.342 | 0.334 | 0.322 | 0.229 | 0.244 | 0.272 | 0.199 | 0.197 | 0.12
HCC-78 | 0.555 | 0.611 | 0.606 | 0.668 | 0.655 | 0.542 | 0.575 | 0.54 | 0.545 | 0.539 | 0.535 | 0.506 | 0.52 | 0.956 | 0.423 | – | – | – | – | –
NCI-H2085 | 0.948 | 0.824 | 1.28 | 0.949 | 1.04 | 1.03 | 0.85 | 0.707 | 1.21 | 1.03 | 1.1 | 0.985 | 1.14 | 1.1 | 0.987 | 0.493 | 0.403 | 0.492 | 0.428 | 0.427
H3255 | 0.861 | 0.865 | 0.876 | 0.832 | 0.861 | 0.844 | 0.883 | 0.945 | 0.637 | 0.726 | 0.901 | 0.776 | 1.06 | – | 0.696 | 0.767 | 0.876 | 0.953 | – | 0.634
NCI-H2087 | 1.26 | 1.12 | 1.05 | 1.03 | 1.18 | 0.996 | 1.14 | 0.993 | 1.18 | 1.24 | 0.772 | 0.718 | 0.804 | 0.621 | 0.714 | 0.136 | 0.209 | 0.214 | 0.162 | 0.16
LC-2-ad | 0.986 | 0.934 | 0.832 | 0.938 | 1.03 | 0.927 | 0.882 | 0.865 | 0.559 | 0.807 | 0.959 | 0.998 | 0.927 | 0.668 | 0.452 | 1.31 | 1.05 | 1.14 | 0.692 | 0.672
PC-3 [JPC-3] | 1.06 | 0.975 | 1.04 | 0.965 | 1 | 1.14 | 1.11 | 1.15 | 1.23 | 1.1 | 0.751 | 0.815 | 0.834 | 0.393 | 0.731 | 0.667 | 0.654 | 0.713 | – | 0.386
EBC-1 | 0.104 | 0.113 | 0.0992 | 0.121 | 0.108 | 0.117 | 0.102 | 0.0979 | 0.0935 | 0.1 | 0.48 | 0.464 | 0.521 | 0.482 | 0.489 | – | – | – | – | –
HCC-15 | 1.11 | 0.965 | 1.03 | 1.01 | 1.02 | 1.07 | 1.01 | 0.964 | – | 0.953 | 0.95 | 0.96 | 0.985 | 0.941 | 0.792 | 0.27 | 0.229 | 0.388 | 0.159 | 0.173
NCI-H1563 | 0.996 | 0.87 | 1.01 | 1.01 | 0.867 | 0.847 | 1 | 0.962 | 0.966 | 1.08 | 0.994 | 0.836 | 0.851 | 0.69 | 0.803 | 0.56 | 0.511 | 0.589 | 0.529 | 0.485
COR-L 105 | 1.24 | 1.11 | 0.744 | 1.02 | 1.15 | 1.03 | 0.834 | 1.04 | 1.34 | 0.917 | 0.902 | 0.771 | 0.647 | 0.442 | 0.56 | 0.826 | 0.821 | 0.666 | 0.766 | 0.385
NCI-H520 | 0.885 | 0.757 | 0.743 | 0.613 | 0.837 | 0.63 | 0.864 | 0.656 | 0.674 | 0.498 | 0.389 | 0.547 | 0.545 | 0.486 | 0.202 | 0.211 | 0.232 | 0.235 | 0.208 | 0.215
LU99A | 0.877 | 0.734 | 0.687 | 0.763 | 0.921 | 0.791 | 0.781 | 0.914 | 0.801 | 0.724 | 1.18 | 1.11 | 0.697 | 0.605 | 0.409 | 0.262 | 0.194 | 0.229 | 0.182 | 0.202
